pIC50, pKi: −log10 of the molar value.
What was measured:
Genome polyprotein [1] = target: T1, Genome polyprotein (dengue virus type 2, UniProt P29990); experiment: Inhibition of recombinant N-terminal His-tagged DENV NS2B-NS3 protease expressed in Escherichia coli BL21(DE3) using Boc-GRR-AMC as substrate measured by flourescence based plate reader assay
Genome polyprotein [2] = target: T2, Genome polyprotein (West Nile virus, UniProt P06935); experiment: Inhibition of C-terminal His-tagged WNV NSB2 (52 to 96 amino acids)-NS3 (1 to 184 amino acids) protease expressed in Escherichia coli BL21(DE3) using Boc-GRK-AMC as substrate measured by flourescence based plate reader assay
T2 sequence (P06935 1371-1501 limits assumed): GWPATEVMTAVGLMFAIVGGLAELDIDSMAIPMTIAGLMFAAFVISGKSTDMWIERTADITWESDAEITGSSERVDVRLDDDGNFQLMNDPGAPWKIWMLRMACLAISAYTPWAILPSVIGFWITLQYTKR
T2 sequence (P06935 1502-2120 limits assumed): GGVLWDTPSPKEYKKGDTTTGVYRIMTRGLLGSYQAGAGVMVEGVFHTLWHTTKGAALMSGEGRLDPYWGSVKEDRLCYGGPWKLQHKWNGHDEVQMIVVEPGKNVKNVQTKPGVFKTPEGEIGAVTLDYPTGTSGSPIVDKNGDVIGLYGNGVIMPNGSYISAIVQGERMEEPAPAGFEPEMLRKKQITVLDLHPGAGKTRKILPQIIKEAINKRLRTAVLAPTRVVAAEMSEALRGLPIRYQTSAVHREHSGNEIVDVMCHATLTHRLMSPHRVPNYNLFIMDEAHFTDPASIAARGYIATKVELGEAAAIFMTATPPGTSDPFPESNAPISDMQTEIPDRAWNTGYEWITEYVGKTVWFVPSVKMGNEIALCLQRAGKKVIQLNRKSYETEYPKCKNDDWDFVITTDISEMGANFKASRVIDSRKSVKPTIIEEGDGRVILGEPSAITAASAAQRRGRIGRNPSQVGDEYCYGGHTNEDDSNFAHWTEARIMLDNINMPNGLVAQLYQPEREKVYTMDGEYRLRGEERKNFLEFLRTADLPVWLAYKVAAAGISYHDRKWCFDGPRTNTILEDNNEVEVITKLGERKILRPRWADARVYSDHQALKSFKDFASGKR

Nonstructural protein 3 [3] = target: T3, Nonstructural protein 3 (Zika virus, UniProt A0A024AXB9); experiment: Inhibition of C-terminal His-tagged ZIKV NSB2 (52 to 96 amino acids)-NS3 (1 to 184 amino acids) protease expressed in Escherichia coli BL21(DE3) preincubated for 10 mins followed by addition of Boc-GKR-AMC substrate and measured by flourescence based plate reader assay
T3 sequence (A0A024AXB9 whole entry, the tested form may be a part): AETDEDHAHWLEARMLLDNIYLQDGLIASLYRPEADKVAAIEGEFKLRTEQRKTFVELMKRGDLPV

Nonstructural protein 3 [4] = target: T3, Nonstructural protein 3; experiment: Competitive inhibition of C-terminal His-tagged ZIKV NSB2 (52 to 96 amino acids)-NS3 (1 to 184 amino acids) protease expressed in Escherichia coli BL21(DE3) preincubated for 10 mins followed by addition of Boc-GKR-AMC substrate and measured by flourescence based plate reader assay
Genome polyprotein [5] = target: T1, Genome polyprotein; experiment: Competitive inhibition of recombinant N-terminal His-tagged DENV NS2B-NS3 protease expressed in Escherichia coli BL21(DE3) using Boc-GRR-AMC as substrate measured by flourescence based plate reader assay
Genome polyprotein [6] = target: T2, Genome polyprotein; experiment: Competitive inhibition of C-terminal His-tagged WNV NSB2 (52 to 96 amino acids)-NS3 (1 to 184 amino acids) protease expressed in Escherichia coli BL21(DE3) using Boc-GRK-AMC as substrate measured by flourescence based plate reader assay
Zika virus = experiment: Antiviral activity against Zika virus infected in human Huh-7 cells assessed as inhibition of viral replication at 12.5 uM measured after 48 hrs by Renilla reporter based luciferase assay relative to control; type: functional
West Nile virus = experiment: Antiviral activity against West Nile virus infected in human Huh-7 cells assessed as inhibition of viral replication at 12.5 uM measured after 48 hrs by plaque assay relative to control; type: functional

T1 sequence (P29990 1346-1475 limits assumed): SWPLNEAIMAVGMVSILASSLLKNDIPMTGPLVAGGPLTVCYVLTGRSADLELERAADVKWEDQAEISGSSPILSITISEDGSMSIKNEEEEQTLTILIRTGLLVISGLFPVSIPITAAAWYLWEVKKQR
T1 sequence (P29990 1476-2093 limits assumed): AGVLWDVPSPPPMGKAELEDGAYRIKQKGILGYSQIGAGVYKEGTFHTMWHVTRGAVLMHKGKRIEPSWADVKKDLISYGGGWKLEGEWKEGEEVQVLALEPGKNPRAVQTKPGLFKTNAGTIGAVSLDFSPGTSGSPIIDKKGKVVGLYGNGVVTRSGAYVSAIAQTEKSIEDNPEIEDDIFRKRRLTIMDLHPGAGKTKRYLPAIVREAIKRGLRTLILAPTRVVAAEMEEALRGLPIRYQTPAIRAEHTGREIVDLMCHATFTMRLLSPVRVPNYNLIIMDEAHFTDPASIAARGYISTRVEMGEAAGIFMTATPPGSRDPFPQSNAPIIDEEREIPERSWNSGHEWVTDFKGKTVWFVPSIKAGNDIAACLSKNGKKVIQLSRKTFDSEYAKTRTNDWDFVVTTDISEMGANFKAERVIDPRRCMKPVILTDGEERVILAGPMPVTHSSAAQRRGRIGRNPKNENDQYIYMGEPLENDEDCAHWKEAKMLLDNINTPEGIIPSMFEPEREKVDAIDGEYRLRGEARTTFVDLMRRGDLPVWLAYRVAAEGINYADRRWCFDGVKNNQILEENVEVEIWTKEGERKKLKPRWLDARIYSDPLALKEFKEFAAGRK

| SMILES | pIC50 (Genome polyprotein [1]) | pIC50 (Genome polyprotein [2]) | pIC50 (Nonstructural protein 3 [3]) | pKi (Nonstructural protein 3 [4]) | pKi (Genome polyprotein [5]) | pKi (Genome polyprotein [6]) | inhibition at 12.5 µM (Zika virus) | inhibition at 12.5 µM (West Nile virus) |
| --- | --- | --- | --- | --- | --- | --- | --- | --- |
| N=C(N)N[C@H]1CC[C@H](CNC(=O)[C@H](CCCCN)NC(=O)[C@H](CCCCN)NC(=O)Cc2ccc(OCCCCS)cc2)CC1 | 4.77 | 6.34 | 6.90 | 7.10 | 4.89 | 6.46 |  |  |
| NC(=O)c1ncn([C@@H]2O[C@H](CO)[C@@H](O)[C@H]2O)n1 [RIBAVIRIN] |  |  |  |  |  |  | 80% | 90% |

Source: ChEMBL document CHEMBL5053560, “Nanoparticular Inhibitors of Flavivirus Proteases from Zika, West Nile and Dengue Virus Are Cell-Permeable Antivirals” (ACS Med Chem Lett, 2021)
